From patent US11154470B1, “Anti-inflammatory and senolytic dental care product with tooth whitening characteristics” (Credentis AG, priority 2020, dated 2021)

Assay: Tooth whitening: colour change of tooth enamel measured with a dental spectrophotometer (L*a*b, ISO 28399)
Conditions: peptide alone 7.5 mg/mL, without excipients; 24 h after application; 10 teeth, three measurements per tooth
Description: Suspensions of oligopeptide 104 (5 mg/ml) with or without hydroxyapatite particles (average size d50≤300 nm (Horiba); 40-60% crystallinity, 25 wt %) were generated.
The suspensions were directly applied onto an enamel surface of a tooth, and residues washed off (10 sec). The specimen was stored in distilled water for 24 hours at 37° C. The procedure was repeated 3 times.
The tooth colour was measured with a dental spectrophotometer (VITA Easyshade). The illumination conditions were standardized with a black box as the background for the teeth during the measurement. The tip was applied perpendicular to the tooth surface and the average L*a*b-values from three repetitions were used for evaluations. Colour measurement were done at baseline ([…]), 24 hours after first application (t1), 24 hours after second application (t3), 24 hours after the third application (t4).
The mean changes of the L*a*b-values between different measurements in each group were expressed as […]E (according to ISO 28399).
Oligopeptide 104 was used in a concentration of 7.5 mg/mL, i.e., the concentration was higher than the concentration of peptide used in the application alone. ΔE was determined 24 h after application, with three measurements per tooth and 10 teeth examined. ΔE was 0.62. […]

Sequence QQRFEWEFEQQ (P11-4 / oligopeptide 104) has a ΔE of 0.62.
